According to patent US20250000881A1, “TREATMENT OF TREATMENT RESISTANT […] PSILOCYBIN” (COMPASS […], priority 2021, published 2025):

Tested on: adult subjects with TRD
Assay: Phase 2b trial in TRD: safety, treatment emergent adverse events
Assay type: in vivo, human
From the text: Another objective was to evaluate the safety and tolerability of psilocybin in subjects with TRD based on AEs, changes in vital signs, and suicidal ideation/behaviour (measured using the Columbia-Suicide Severity Rating Scale [C-SSRS]) score at all visits.
Throughout the course of the study, all adverse events (AEs) were monitored and recorded and included the AE's description, start and end date, seriousness, severity, action taken, and relationship to the treatment. If AEs occurred, the first concern was the safety of the study subjects.
An AE can therefore be any unfavorable and unintended sign (including an abnormal laboratory finding, for example), symptom, or disease temporally associated with the use of a medicinal product, whether considered related to the medicinal product.
AEs were coded by Preferred Term (PT) using the Medical Dictionary for Regulatory Activities (MedDRA) classification. All reported AEs with onset or worsening after the administration of study medication were included in the analysis. The incidence of AEs was summarized by treatment group, and by severity and relationship to psilocybin. Serious AEs and AEs leading to withdrawal from the study will be tabulated.
A TEAE is defined as any AE that has an onset on or after the dose of psilocybin, or any pre-existing condition that has worsened on or after the dose of psilocybin.
The incidence of TEAEs and treatment-related AEs were summarized by maximum severity and most-related relationship to psilocybin by MedDRA primary system organ class and PT. The summary included the total number and percentage of subjects reporting an event.

## CN(C)CCc1c[nH]c2cccc(OP(=O)(O)O)c12 [COMP360, psilocybin]
25 mg (N = 79)
  TEAE Depression, participants: 4 (5.1) n (%)
  TEAE Dizziness, participants: 6 (7.6) n (%)
  TEAE Euphoric mood, participants: 4 (5.1) n (%)
  TEAE Fatigue, participants: 12 (15.2) n (%)
  TEAE Headache, participants: 27 (34.2) n (%)
  TEAE Insomnia, participants: 8 (10.1) n (%)
  TEAE Irritability, participants: 4 (5.1) n (%)
  TEAE Mood altered, participants: 7 (8.9) n (%)
  TEAE Myalgia, participants: 5 (6.3) n (%)
  TEAE Nausea, participants: 18 (22.8) n (%)
  TEAE Panic reaction, participants: 4 (5.1) n (%)
  TEAE Paraesthesia, participants: 3 (3.8) n (%)
  TEAE Suicidal ideation, participants: 5 (6.3) n (%)
  TEAE Thinking abnormal, participants: 0 n (%)
  TESAE Adjustment disorder with anxiety, participants: 1 (1.3) n (%)
  TESAE Adjustment disorder with mixed anxiety and depressed mood, participants: 1 (1.3) n (%)
  TESAE Depression, participants: 0 n (%)
  TESAE Drug withdrawal syndrome*, participants: 1 (1.3) n (%)
  TESAE Hospitalisation, participants: 0 n (%)
  TESAE Intentional self-injury, participants: 2 (2.5) n (%)
  TESAE Suicidal behaviour, participants: 3 (3.8) n (%)
  TESAE Suicidal ideation, participants: 2 (2.5) n (%)
25 mg group
  Patients with TEAEs of suicidal ideation, suicidal behaviour and intentional self-injury: seven
  Patients with TESAEs of suicidal ideation, suicidal behaviour and intentional self-injury: four
25 mg, 10 mg, 1 mg groups, blinded remote rater
  MADRS item 10 (suicidality) scores post-administration, comparison of groups: no difference between the three groups
Overall (N = 233)
  Any TESAE, participants: 12 (5.2) n (%)
  TEAE Abdominal pain upper, participants: 7 (3.0) n (%)
  TEAE Anxiety, participants: 23 (9.9) n (%)
  TEAE Back pain, participants: 9 (3.9) n (%)
  TEAE Depressed mood, participants: 12 (5.2) n (%)
  TEAE Depression, participants: 15 (6.4) n (%)
  TEAE Dizziness, participants: 8 (3.4) n (%)
  TEAE Euphoric mood, participants: 13 (5.6) n (%)
  TEAE Fatigue, participants: 24 (10.3) n (%)
  TEAE Headache, participants: 63 (27.0) n (%)
  TEAE Insomnia, participants: 33 (14.2) n (%)
  TEAE Irritability, participants: 7 (3.0) n (%)
  TEAE Mood altered, participants: 11 (4.7) n (%)
  TEAE Myalgia, participants: 8 (3.4) n (%)
  TEAE Nausea, participants: 29 (12.4) n (%)
  TEAE Panic reaction, participants: 6 (2.6) n (%)
  TEAE Paraesthesia, participants: 8 (3.4) n (%)
  TEAE Suicidal ideation, participants: 14 (6.0) n (%)
  TEAE Thinking abnormal, participants: 4 (1.7) n (%)
  TESAE Adjustment disorder with anxiety, participants: 1 (0.4) n (%)
  TESAE Adjustment disorder with mixed anxiety and depressed mood, participants: 1 (0.4) n (%)
  TESAE Depression, participants: 1 (0.4) n (%)
  TESAE Drug withdrawal syndrome*, participants: 1 (0.4) n (%)
  TESAE Hospitalisation, participants: 1 (0.4) n (%)
  TESAE Intentional self-injury, participants: 5 (2.1) n (%)
  TESAE Suicidal behaviour, participants: 3 (1.3) n (%)
  TESAE Suicidal ideation, participants: 4 (1.7) n (%)
All groups
  Patients with TEAEs of suicidal ideation, suicidal behaviour and intentional self-injury: 17 patients
  Patients with TESAEs of suicidal ideation, suicidal behaviour and intentional self-injury: nine
  TEAEs being mild or moderate in severity: more than 90%
  TEAEs occurring on the day of administration that resolved on the same day or the day after: 77.4%
  TEAEs of suicidal ideation, suicidal behaviour and intentional self-injury: 27 events
  TESAEs of suicidal ideation, suicidal behaviour and intentional self-injury: 14 events
  TESAEs of suicidality/self-injury that occurred at least one week after the session: 10 events out of 14
All groups (233 patients)
  Participants reported at least one TEAE: 179 participants
All patients reporting these events were non responders at event onset
  Timing of suicidal behaviours after the psilocybin therapy session: occurred at least one month after the psilocybin therapy session
Single dose 1, 10 or 25 mg
  Tolerability: generally well tolerated
Started on the day of administration
  TEAEs involving hallucination (25 mg and 10 mg groups only) and illusion (all groups): onset and resolution: resolved on the same day
